The values that follow come from ChEMBL document CHEMBL3046790, “Antioxidant potential and antimicrobial screening of some novel imidazole derivatives: greenway efficient one pot synthesis” (Med Chem Res, 2012).

One may read the IC50 as the concentration that inhibits the measured activity by half. One may read the MIC as the lowest concentration that inhibits growth of the organism.

Molecules are shown by their SMILES. ≈ marks a conversion by molar mass, not a printed value.

What all share (type): functional
Assay [1] in a line: Antioxidant activity assessed as DPPH scavenging activity after 30 min by spectrophotometry. For orientation: The DPPH test is a chemical assay of radical scavenging.
A short description of assay [2]: Antioxidant activity assessed as DPPH scavenging activity at 50 uM after 30 min by spectrophotometry.
Assay [3] in a line: Antioxidant activity assessed as DPPH scavenging activity at 40 uM after 30 min by spectrophotometry.
Assay [4] can be described thus: Antioxidant activity assessed as DPPH scavenging activity at 20 uM after 30 min by spectrophotometry.
A short description of assay [5]: Antioxidant activity assessed as DPPH scavenging activity at 30 uM after 30 min by spectrophotometry.
Assay [6] in a line: Antioxidant activity assessed as DPPH scavenging activity at 10 uM after 30 min by spectrophotometry.
Assay [7] is described as follows: Antioxidant activity assessed as superoxide scavenging activity after 15 min by PMS/NADH-NBT assay.
Assay [8] in a line: Antioxidant activity assessed as superoxide scavenging activity at 80 uM after 15 min by PMS/NADH-NBT assay.
A short description of assay [9]: Antioxidant activity assessed as superoxide scavenging activity at 100 uM after 15 min by PMS/NADH-NBT assay.
Assay [10] in a line: Antioxidant activity assessed as superoxide scavenging activity at 60 uM after 15 min by PMS/NADH-NBT assay.
Assay [11] in a line: Antioxidant activity assessed as superoxide scavenging activity at 40 uM after 15 min by PMS/NADH-NBT assay.
The nature of assay [12]: Antioxidant activity assessed as superoxide scavenging activity at 20 uM after 15 min by PMS/NADH-NBT assay.
Assay [13] in a line: Antioxidant activity assessed as superoxide scavenging activity at 10 uM after 15 min by PMS/NADH-NBT assay.
A short description of assay [14]: Antioxidant activity assessed as hydroxyl radical scavenging activity after 60 min using thiobarbutaric acid by spectrophotometry.
A short description of assay [15]: Antioxidant activity assessed as hydroxyl radical scavenging activity at 100 uM after 60 min using thiobarbutaric acid by spectrophotometry.
A short description of assay [16]: Antioxidant activity assessed as hydroxyl radical scavenging activity at 80 uM after 60 min using thiobarbutaric acid by spectrophotometry.
Assay [17] in a line: Antioxidant activity assessed as hydroxyl radical scavenging activity at 60 uM after 60 min using thiobarbutaric acid by spectrophotometry.
Assay [18] in a line: Antioxidant activity assessed as hydroxyl radical scavenging activity at 40 uM after 60 min using thiobarbutaric acid by spectrophotometry.
A short description of assay [19]: Antioxidant activity assessed as hydroxyl radical scavenging activity at 20 uM after 60 min using thiobarbutaric acid by spectrophotometry.
Assay [20] in a line: Antioxidant activity assessed as hydroxyl radical scavenging activity at 10 uM after 60 min using thiobarbutaric acid by spectrophotometry.
The next assay relates to Aspergillus flavus. The experiment in a line: Antimicrobial activity against Aspergillus flavus after 24 hr.
A further assay deals with Aspergillus niger. The experiment in a line: Antimicrobial activity against Aspergillus niger after 24 hr.
The test system of the next assay is Candida. The experiment in a line: Antimicrobial activity against Candida-6 after 24 hr. The settings on record: Candida, 6, 24 h.
In the next assay the test system is Escherichia coli. The assay can be described thus: Antimicrobial activity against Escherichia coli after 24 hr.
The test system of the next assay is Klebsiella pneumoniae. The assay can be described thus: Antimicrobial activity against Klebsiella pneumoniae after 24 hr.
The test system of another assay is Staphylococcus aureus. The experiment in a line: Antimicrobial activity against Staphylococcus aureus after 24 hr.

Take `O=C1O[C@H]([C@@H](O)CO)C(O)=C1O` [ASCORBIC ACID]: the half-maximal inhibitory concentration (IC50) in assay [1] worked out at 3.1 mg/L (≈ 17.6 µM); in assay [7], 2.8 mg/L (≈ 15.9 µM); in assay [14], 2.72 mg/L (≈ 15.4 µM). The Activity in assay [2] was 75.4%; in assay [3], 66.5%; in assay [4] it was 34.5%; in assay [5] it was 48.8%; in assay [6], 26.5%; in assay [8], 66.5%. For the same compound, the Activity in assay [9] amounted to 73.5%; in [10] it was 62.1%; in assay [11], 55.5%; in assay [12] it was 48.8%; in assay [13] it was 32.6%; in [15] it was 78.5%. Besides, the Activity in assay [16] was determined as 70.4%; in assay [17], 65.3%; in assay [18], 48.6%; in assay [19] it was 41.3%; in assay [20] it was 24.3%.
On to `COc1ccc(-n2c(-c3ccc(F)cc3)nc(C)c2C)cc1`, for which the Activity result in [1] was “Dose-dependent effect”; in assay [2], 68.7%; in assay [3] it was 64.6%; in assay [4], 20.2%; in [5], 46.5%; in assay [6] it was 11.1%. The Activity result in assay [7] was “Dose-dependent effect”; in [8] it was 45.7%; in assay [9], 41%; in [10], 41.9%; in assay [11] it was 39%; in assay [12], 39%. The Activity in [13] was 38.1%; in [14] it was “Dose-dependent effect”; in assay [15], 52.9%; in [16] it was 50.6%; in [17] it was 48.3%; in assay [18], 43.7%. For the same compound, the Activity in assay [19] turned out to be 48.3%; in [20] it was 39.1%. Besides, the IC50 in [1] was 3.46 mg/L (≈ 11.7 µM); in assay [7] it was 5.2 mg/L (≈ 17.5 µM); in [14], 3.84 mg/L (≈ 13 µM). Besides, the minimum inhibitory concentration (MIC) in the assay on Aspergillus flavus was 25 mg/L (≈ 84.4 µM); against Aspergillus niger it was 25 mg/L (≈ 84.4 µM); against Candida, 25 mg/L (≈ 84.4 µM); against Escherichia coli it was 25 mg/L (≈ 84.4 µM); in the assay on Klebsiella pneumoniae, 50 mg/L (≈ 169 µM); with Staphylococcus aureus it was 50 mg/L (≈ 169 µM).
For the compound `COc1ccc(-n2c(-c3ccccc3)nc(C)c2C)cc1`, the Activity result is “Dose-dependent effect” in assay [1]; 55.5% in [2]; 56.6% in [3]; 28.3% in assay [4]; 59.6% in assay [5]; 14.1% in assay [6]. Moreover, the Activity entry is “Dose-dependent effect” in [7]; 68.4% in assay [8]; 59.6% in assay [9]; 64.9% in assay [10]; 63.1% in assay [11]; 28.1% in [12]. For the same compound, the Activity in [13] was 10.5%; in [14], “Dose-dependent effect”; in assay [15], 52.9%; in assay [16] it was 50.6%; in assay [17] it was 48.3%; in assay [18], 43.7%. Further, the Activity in assay [19] is 40.2%; in [20], 35.6%. In addition, the results for the 50% inhibitory concentration (IC50) in [1], in assay [7] and in [14] were 3.64 mg/L (≈ 13.1 µM), 3.74 mg/L (≈ 13.4 µM) and 4.5 mg/L (≈ 16.2 µM), respectively. Further, the minimum inhibitory concentration (MIC) against Aspergillus flavus is 25 mg/L (≈ 89.8 µM); against Aspergillus niger, 100 mg/L (≈ 359 µM); in the assay with Candida, 25 mg/L (≈ 89.8 µM); in the assay with Escherichia coli it was 25 mg/L (≈ 89.8 µM); in the assay with Klebsiella pneumoniae it was 100 mg/L (≈ 359 µM); against Staphylococcus aureus, 50 mg/L (≈ 180 µM).
For the compound `COc1cc(OC)cc(-n2c(-c3ccccc3)nc(C)c2C)c1`, the Activity entry in [1] is “Dose-dependent effect”; in assay [2], 55.5%; in assay [3] it was 57.6%; in [4], 20.2%; in assay [5], 52.5%; in assay [6], 17.2%. Further, the Activity entry in assay [7] was “Dose-dependent effect”; in assay [8], 59%; in assay [9] it was 61%; in assay [10], 53.3%; in assay [11] it was 49.5%; in [12], 32.4%. In addition, the Activity in assay [13] was 13.3%; in assay [14], “Dose-dependent effect”; in assay [15], 58.6%; in assay [16] it was 55.2%; in [17], 54%; in assay [18], 47.1%. Moreover, the Activity in assay [19] was determined as 39.1%; in assay [20], 34.5%. Further, the IC50 in [1] worked out at 3.8 mg/L (≈ 12.3 µM); in assay [7], 4.16 mg/L (≈ 13.5 µM); in assay [14], 4.14 mg/L (≈ 13.4 µM). Also, the minimum inhibitory concentration (MIC) worked out at 25 mg/L (≈ 81.1 µM) against Aspergillus flavus; 25 mg/L (≈ 81.1 µM) in the assay on Aspergillus niger; 25 mg/L (≈ 81.1 µM) in the assay on Candida; 50 mg/L (≈ 162 µM) with Escherichia coli; 100 mg/L (≈ 324 µM) against Klebsiella pneumoniae; 25 mg/L (≈ 81.1 µM) in the assay on Staphylococcus aureus.
In the case of `C[C@@H]1[C@H](O)[C@@H](C)/C=C/C=C/C=C/C=C/C=C/C=C/C=C/[C@H](O[C@@H]2O[C@H](C)[C@@H](O)[C@H](N)[C@@H]2O)C[C@@H]2O[C@](O)(C[C@@H](O)C[C@@H](O)[C@H](O)CC[C@@H](O)C[C@@H](O)CC(=O)O[C@H]1C)C[C@H](O)[C@H]2C(=O)O` [AMPHOTERICIN B], the MIC was found to be 25 mg/L (≈ 27.1 µM) in the assay with Aspergillus flavus, 50 mg/L (≈ 54.1 µM) in the assay with Aspergillus niger and 12.5 mg/L (≈ 13.5 µM) with Candida.
For `COc1cc(OC)cc(-n2c(-c3ccc(F)cc3)nc(C)c2C)c1`, the Activity entry is “Dose-dependent effect” in assay [1]; 56.6% in assay [2]; 57.6% in assay [3]; 19.2% in assay [4]; 42.4% in assay [5]; 12.1% in [6]. The Activity entry was “Dose-dependent effect” in [7]; 58.1% in assay [8]; 55.2% in assay [9]; 60% in [10]; 55.2% in assay [11]; 24.8% in assay [12]. Also, the Activity was 21.9% in assay [13]; “Dose-dependent effect” in [14]; 54% in assay [15]; 55.2% in assay [16]; 57.5% in assay [17]; 47.1% in assay [18]. In addition, the Activity in assay [19] was 40.2%; in assay [20] it was 35.6%. In addition, the concentration for half-maximal inhibition (IC50) in assay [1] was found to be 3.98 mg/L (≈ 12.2 µM); in [7], 4.16 mg/L (≈ 12.7 µM); in assay [14], 4.18 mg/L (≈ 12.8 µM). For the same compound, the MIC was 50 mg/L (≈ 153 µM) with Aspergillus flavus; 50 mg/L (≈ 153 µM) against Aspergillus niger; 50 mg/L (≈ 153 µM) in the assay on Candida; 50 mg/L (≈ 153 µM) in the assay on Escherichia coli; 100 mg/L (≈ 306 µM) against Klebsiella pneumoniae; 50 mg/L (≈ 153 µM) against Staphylococcus aureus.
`O=C(O)c1cn(C2CC2)c2cc(N3CCNCC3)c(F)cc2c1=O` [CIPROFLOXACIN]: in the assay with Klebsiella pneumoniae, it took 100 mg/L (≈ 302 µM) to inhibit growth (MIC).
